Test results reported in paper PMC8698454, “Anti-Colonization Effect of Au Surfaces with Self-Assembled Molecular Monolayers Functionalized with Antimicrobial Peptides on S. epidermidis” (Antibiotics, 2021).
Like-named read-outs stand apart in the source and are kept apart here. Where a SMILES comes first, the peptide text is derived from it. [ ]: non-standard residue; d: D form. Lys(N3) = [N-]=[N+]=NCCCC[C@H](N)C(=O)O

Columns and labels:
Gram-positive bacteria = assay type: cell-based, S. aureus and S. epidermidis
Experimental: (§1) The minimal inhibitory concentration (MIC) of peptides 1a, 1b, 2a, and 2b were determined by broth microdilution according to the Clinical Laboratory Standard Institute (CLSI) method […]-A9. The MICs of the peptides 1c, 1d, 2c, and 2d were determined by broth dilution according to the European Committee for Antimicrobial Susceptibility Testing (EUCAST). Final concentrations of 0.5-256 μg/mL were tested against a panel of reference bacteria-S. aureus (ATCC 9144), S. epidermidis (1457), E. coli (ATCC 25922), and P. aeruginosa (ATCC 27853). Each strain was tested in biological triplicate. The MIC values were defined as the lowest concentration of the peptides resulting in no visual growth.

[1] = system: Escherichia coli ATCC 25922; assay type: cell-based; conditions: for Antimicrobial Activity (MIC) E. coli: ATCC 25922; for MIC E. coli ATCC 25922: Table S3
Experimental: as §1

[2] = system: Pseudomonas aeruginosa ATCC 27853; assay type: cell-based; conditions: for Antimicrobial Activity (MIC) P. aeruginosa: ATCC 27853; for MIC P. aeruginosa ATCC 27853: Table S3
Experimental: as §1

[3] = system: Staphylococcus aureus ATCC 9144; assay type: cell-based; conditions: for Antimicrobial Activity (MIC) S. aureus: ATCC 9144; for MIC S. aureus ATCC 9144: Table S3
Experimental: as §1

[4] = system: Staphylococcus epidermidis 1457; assay type: cell-based; conditions: for MIC S. epidermidis 1457: Table S3
Experimental: as §1

Gram-negative bacteria = assay type: cell-based, E. coli and P. aeruginosa
Experimental: as §1

[5] = technical replicate 1, biological replicate BR1
[6] = technical replicate 1, biological replicate BR2
[7] = technical replicate 1, biological replicate BR3
[8] = technical replicate 2, biological replicate BR1
[9] = technical replicate 2, biological replicate BR2
[10] = technical replicate 2, biological replicate BR3
[11] = technical replicate 3, biological replicate BR1
[12] = technical replicate 3, biological replicate BR2
[13] = technical replicate 3, biological replicate BR3
[14] = broth microdilution CLSI M07-A9 (1a,1b,2a,2b) or broth dilution EUCAST (1c,1d,2c,2d), 0.5-256 µg/mL tested, biological triplicate, no visual growth
[15] = broth microdilution CLSI M07-A9 (1a,1b,2a,2b) or broth dilution EUCAST (1c,1d,2c,2d), 0.5-256 µg/mL tested, biological triplicate, lowest concentration with no visual growth
[16] = strain 1457, broth microdilution CLSI M07-A9 (1a,1b,2a,2b) or broth dilution EUCAST (1c,1d,2c,2d), 0.5-256 µg/mL tested, biological triplicate, no visual growth

[N-]=[N+]=NCCCC[C@H](NC(=O)[C@H](Cc1ccccc1)NC(=O)[C@H](CCCNC(=N)N)NC(=O)[C@H](Cc1c[nH]c2ccccc12)NC(=O)[C@H](Cc1c[nH]c2ccccc12)NC(=O)[C@@H](N)CCCNC(=N)N)C(N)=O [1c] (H-RWWRF[Lys(N3)]-NH2)
64 µg/mL: Antimicrobial Activity (MIC) E. coli [1] | MIC E. coli ATCC 25922 [1, 6] | MIC E. coli ATCC 25922 [1, 8] | MIC E. coli ATCC 25922 [1, 9] | MIC E. coli ATCC 25922 [1, 11] | MIC E. coli ATCC 25922 [1, 12] | Antimicrobial Activity (MIC) P. aeruginosa [2] | MIC P. aeruginosa ATCC 27853 [2, 5] | MIC P. aeruginosa ATCC 27853 [2, 6] | MIC P. aeruginosa ATCC 27853 [2, 8] | MIC P. aeruginosa ATCC 27853 [2, 9] | MIC P. aeruginosa ATCC 27853 [2, 11] | MIC P. aeruginosa ATCC 27853 [2, 12] | MIC against Gram-negative bacteria (Gram-negative bacteria)
32 µg/mL: MIC E. coli ATCC 25922 [1, 5] | MIC E. coli ATCC 25922 [1, 7] | MIC E. coli ATCC 25922 [1, 10] | MIC E. coli ATCC 25922 [1, 13] | MIC P. aeruginosa ATCC 27853 [2, 7] | MIC P. aeruginosa ATCC 27853 [2, 10] | MIC P. aeruginosa ATCC 27853 [2, 13] | Antimicrobial Activity (MIC) S. aureus [3] | MIC S. aureus ATCC 9144 [3, 5] | MIC S. aureus ATCC 9144 [3, 6] | MIC S. aureus ATCC 9144 [3, 7] | MIC S. aureus ATCC 9144 [3, 8] | MIC S. aureus ATCC 9144 [3, 9] | MIC S. aureus ATCC 9144 [3, 10] | MIC S. aureus ATCC 9144 [3, 11] | MIC S. aureus ATCC 9144 [3, 12] | MIC S. aureus ATCC 9144 [3, 13]
16 to 32 µg/mL: MIC against Gram-positive bacteria (Gram-positive bacteria)
16 µg/mL: Antimicrobial Activity (MIC) S. epidermidis [4]; 1457 | MIC S. epidermidis 1457 [4, 5] | MIC S. epidermidis 1457 [4, 6] | MIC S. epidermidis 1457 [4, 7] | MIC S. epidermidis 1457 [4, 8] | MIC S. epidermidis 1457 [4, 9] | MIC S. epidermidis 1457 [4, 10] | MIC S. epidermidis 1457 [4, 11] | MIC S. epidermidis 1457 [4, 12] | MIC S. epidermidis 1457 [4, 13]

[N-]=[N+]=NCCCC[C@@H]1NC(=O)[C@H](Cc2ccccc2)NC(=O)[C@H](CCCNC(=N)N)NC(=O)[C@H](Cc2c[nH]c3ccccc23)NC(=O)[C@H](Cc2c[nH]c3ccccc23)NC(=O)[C@H](CCCNC(=N)N)NC1=O [1d] (cyclo(RWWRF[Lys(N3)]))
16 µg/mL: MIC S. aureus ATCC 9144 [3, 6] | MIC S. aureus ATCC 9144 [3, 9] | MIC S. aureus ATCC 9144 [3, 12] | MIC S. aureus ATCC 9144 [3, 13] | MIC S. epidermidis 1457 [4, 7] | MIC S. epidermidis 1457 [4, 10] | MIC S. epidermidis 1457 [4, 13]
8 µg/mL: MIC against Gram-positive bacteria (Gram-positive bacteria) | Antimicrobial Activity (MIC) S. aureus [3] | MIC S. aureus ATCC 9144 [3, 5] | MIC S. aureus ATCC 9144 [3, 7] | MIC S. aureus ATCC 9144 [3, 8] | MIC S. aureus ATCC 9144 [3, 10] | MIC S. aureus ATCC 9144 [3, 11] | Antimicrobial Activity (MIC) S. epidermidis [4]; 1457 | MIC S. epidermidis 1457 [4, 5] | MIC S. epidermidis 1457 [4, 6] | MIC S. epidermidis 1457 [4, 8] | MIC S. epidermidis 1457 [4, 9] | MIC S. epidermidis 1457 [4, 11] | MIC S. epidermidis 1457 [4, 12]
128 µg/mL: Antimicrobial Activity (MIC) P. aeruginosa [2] | MIC P. aeruginosa ATCC 27853 [2, 5] | MIC P. aeruginosa ATCC 27853 [2, 7] | MIC P. aeruginosa ATCC 27853 [2, 8] | MIC P. aeruginosa ATCC 27853 [2, 10] | MIC P. aeruginosa ATCC 27853 [2, 11] | MIC P. aeruginosa ATCC 27853 [2, 13]
256 µg/mL: MIC P. aeruginosa ATCC 27853 [2, 6] | MIC P. aeruginosa ATCC 27853 [2, 9] | MIC P. aeruginosa ATCC 27853 [2, 12]
64 µg/mL: Antimicrobial Activity (MIC) E. coli [1] | MIC E. coli ATCC 25922 [1, 5] | MIC E. coli ATCC 25922 [1, 6] | MIC E. coli ATCC 25922 [1, 7] | MIC E. coli ATCC 25922 [1, 8] | MIC E. coli ATCC 25922 [1, 9] | MIC E. coli ATCC 25922 [1, 10] | MIC E. coli ATCC 25922 [1, 11] | MIC E. coli ATCC 25922 [1, 12] | MIC E. coli ATCC 25922 [1, 13]

N3-PEG200-RBBRF [2a, azidopeptide N3-PEG200-RBBRF, B = biphenylalanine, amidated C-terminus]
4 µg/mL: MIC S. epidermidis 1457 [4, 5] | MIC S. epidermidis 1457 [4, 8] | MIC S. epidermidis 1457 [4, 11]
64 µg/mL: Antimicrobial Activity (MIC) E. coli [1, 14] | MIC E. coli ATCC 25922 [1, 5] | MIC E. coli ATCC 25922 [1, 6] | MIC E. coli ATCC 25922 [1, 7] | MIC E. coli ATCC 25922 [1, 8] | MIC E. coli ATCC 25922 [1, 9] | MIC E. coli ATCC 25922 [1, 10] | MIC E. coli ATCC 25922 [1, 11] | MIC E. coli ATCC 25922 [1, 12] | MIC E. coli ATCC 25922 [1, 13] | Antimicrobial Activity (MIC) P. aeruginosa [2, 14] | MIC P. aeruginosa ATCC 27853 [2, 5] | MIC P. aeruginosa ATCC 27853 [2, 6] | MIC P. aeruginosa ATCC 27853 [2, 7] | MIC P. aeruginosa ATCC 27853 [2, 8] | MIC P. aeruginosa ATCC 27853 [2, 9] | MIC P. aeruginosa ATCC 27853 [2, 10] | MIC P. aeruginosa ATCC 27853 [2, 11] | MIC P. aeruginosa ATCC 27853 [2, 12] | MIC P. aeruginosa ATCC 27853 [2, 13] | MIC against Gram-negative bacteria (Gram-negative bacteria; text summary over E. coli ATCC 25922 and P. aeruginosa ATCC 27853)
8 µg/mL: MIC against Gram-positive bacteria (Gram-positive bacteria; text summary over S. aureus ATCC 9144 and S. epidermidis 1457) | Antimicrobial Activity (MIC) S. aureus [3, 15] | MIC S. aureus ATCC 9144 [3, 5] | MIC S. aureus ATCC 9144 [3, 6] | MIC S. aureus ATCC 9144 [3, 7] | MIC S. aureus ATCC 9144 [3, 8] | MIC S. aureus ATCC 9144 [3, 9] | MIC S. aureus ATCC 9144 [3, 10] | MIC S. aureus ATCC 9144 [3, 11] | MIC S. aureus ATCC 9144 [3, 12] | MIC S. aureus ATCC 9144 [3, 13] | MIC S. epidermidis 1457 [4, 6] | MIC S. epidermidis 1457 [4, 7] | MIC S. epidermidis 1457 [4, 9] | MIC S. epidermidis 1457 [4, 10] | MIC S. epidermidis 1457 [4, 12] | MIC S. epidermidis 1457 [4, 13] | Antimicrobial Activity (MIC) S. epidermidis [4, 16]

N3-PEG400-RWWRF [1b, azidopeptide N3-PEG400-RWWRF, PEG400-linked, amidated C-terminus]
>256 µg/mL: Antimicrobial Activity (MIC) E. coli [1, 14] | Antimicrobial Activity (MIC) P. aeruginosa [2, 14]
64 µg/mL: MIC S. epidermidis 1457 [4, 7] | MIC S. epidermidis 1457 [4, 13]
128 µg/mL: Antimicrobial Activity (MIC) S. aureus [3, 15] | MIC S. aureus ATCC 9144 [3, 5] | MIC S. aureus ATCC 9144 [3, 6] | MIC S. aureus ATCC 9144 [3, 7] | MIC S. aureus ATCC 9144 [3, 8] | MIC S. aureus ATCC 9144 [3, 9] | MIC S. aureus ATCC 9144 [3, 10] | MIC S. aureus ATCC 9144 [3, 11] | MIC S. aureus ATCC 9144 [3, 12] | MIC S. aureus ATCC 9144 [3, 13] | MIC S. epidermidis 1457 [4, 5] | MIC S. epidermidis 1457 [4, 6] | MIC S. epidermidis 1457 [4, 8] | MIC S. epidermidis 1457 [4, 9] | MIC S. epidermidis 1457 [4, 10] | MIC S. epidermidis 1457 [4, 11] | MIC S. epidermidis 1457 [4, 12] | Antimicrobial Activity (MIC) S. epidermidis [4, 16]
> 256 µg/mL: MIC E. coli ATCC 25922 [1, 5] | MIC E. coli ATCC 25922 [1, 6] | MIC E. coli ATCC 25922 [1, 7] | MIC E. coli ATCC 25922 [1, 8] | MIC E. coli ATCC 25922 [1, 9] | MIC E. coli ATCC 25922 [1, 10] | MIC E. coli ATCC 25922 [1, 11] | MIC E. coli ATCC 25922 [1, 12] | MIC E. coli ATCC 25922 [1, 13] | MIC P. aeruginosa ATCC 27853 [2, 5] | MIC P. aeruginosa ATCC 27853 [2, 6] | MIC P. aeruginosa ATCC 27853 [2, 7] | MIC P. aeruginosa ATCC 27853 [2, 8] | MIC P. aeruginosa ATCC 27853 [2, 9] | MIC P. aeruginosa ATCC 27853 [2, 10] | MIC P. aeruginosa ATCC 27853 [2, 11] | MIC P. aeruginosa ATCC 27853 [2, 12] | MIC P. aeruginosa ATCC 27853 [2, 13]
